Results published in patent publication US12209099B2, “Azetidobenzodiazepine dimers and conjugates comprising them for use in the treatment of cancer” (MEDIMMUNE LIMITED, priority 2019, dated 2025).

Tested on: carcinoma cell line NCI-N87
Assay: Cytotoxicity assay of warheads (MTS, 7 days)
Assay type: cell-based
Conditions: Homo sapiens, 168 h, NCI-N87, 7 days incubation, mean of three independent replicates
Procedure: The potency of the molecules were measured via in vitro cytotox assays in the carcinoma cell line NCI-N87.
Solid material was dissolved in DMSO to a 2 mM stock solution, from which eight serial dilutions were made at a 1:10 ratio in DMSO and stored at −20° C. until use.
Adherent NCI-N87 cells were washed with D-PBS and detached with Trypsin-EDTA, cell density and viability were then determined in duplicate by Trypan blue exclusion assay using an automated cell counter (LUNA-II™). Cell suspension was diluted to 1×10^5 cells/ml in growth media (RPMI 1640 with Glutamax+10% (v/v) HyClone™ Fetal Bovine Serum) and vortexed before dispensing 2 mL per well into sterile 3 mL polypropylene plates. Warhead dilutions were then dispensed into the appropriate wells at 10 μl/well and mixed by repeat pipetting. For control wells 10 μl of DMSO was dispensed onto 2 mL cell suspension, and thoroughly mixed. 100 μl of each sample was then aliquoted into 2 replicate wells of a sterile flat 96-well microplate and incubated in a 37° C. CO2-gassed (5%) incubator. At the end of the incubation period time (7 days), cell viability was measured by CellTiter 96 Aqueous One (MTS) assay, which was dispensed at 20 μl/well and incubated for 4 hours at 37° C., 5% CO2. Plates were then read on an EnVision Multi-label Plate Reader (Perkin Elmer) using absorbance at 490 nm.
Cell survival percentage was calculated from the mean absorbance of the 2 replicate wells for each sample, compared to the mean absorbance in the two control wells treated with DMSO only (100%). The IC50 was determined by fitting each data set to sigmoidal dose-response curves with a variable slope using the non-linear curve fit algorithm on the GraphPad Prism software (San Diego, CA).
All the experiments in this report were carried out and tested in three independent experiments. Data are reported as the mean of the three independent replicates.

SMILES	IC50
COc1cc2c(cc1OCCCCCOc1cc3c(cc1OC)C(=O)N1CC[C@H]1C=N3)N=C[C@@H]1CCN1C2=O [Ex1, (10aS,10a′S)-7,7′-(pentane-1,5-diylbis(oxy))bis(6-methoxy-1,10a-dihydroazeto[1,2-a]benzo[e][1,4]diazepin-4(2H)-one)]	2.2 nM
COc1cc2c(cc1OCCCOc1cc3c(cc1OC)C(=O)N1CC[C@H]1C=N3)N=C[C@@H]1CCN1C2=O [Ex2A, (10aS,10a′S)-7,7′-(propane-1,3-diylbis(oxy))bis(6-methoxy-1,10a-dihydroazeto[1,2-a]benzo[e][1,4]diazepin-4(2H)-one)]	70.1 nM
COc1cc2c(cc1OCc1cccc(COc3cc4c(cc3OC)C(=O)N3CC[C@H]3C=N4)c1)N=C[C@@H]1CCN1C2=O [Ex2B, (10aS,10a′S)-7,7′-((1,3-phenylenebis(methylene))bis(oxy))bis(6-methoxy-1,10a-dihydroazeto[1,2-a]benzo[e][1,4]diazepin-4(2H)-one)]	4.04 nM
